# From PubChem BioAssay AID652109 (The Scripps Research Institute Molecular Screening Center, 2013)
# The source made the active and inactive calls. No rule for the calls is given here.
# Biological target: Serine/threonine-protein phosphatase PP1-alpha catalytic subunit (Homo sapiens) (UniProt P62136)
# Test: PP1 phosphatase inhibitors, late-stage follow-up, biochemical, OMFP substrate, fluorescence (AID 652109)
# Settings: PP1 dephosphorylation of OMFP, at 6.7 µM, active compounds read high
# Serine/threonine-protein phosphatase PP1-alpha catalytic subunit (Homo sapiens), sequence (P62136 whole entry, looked up): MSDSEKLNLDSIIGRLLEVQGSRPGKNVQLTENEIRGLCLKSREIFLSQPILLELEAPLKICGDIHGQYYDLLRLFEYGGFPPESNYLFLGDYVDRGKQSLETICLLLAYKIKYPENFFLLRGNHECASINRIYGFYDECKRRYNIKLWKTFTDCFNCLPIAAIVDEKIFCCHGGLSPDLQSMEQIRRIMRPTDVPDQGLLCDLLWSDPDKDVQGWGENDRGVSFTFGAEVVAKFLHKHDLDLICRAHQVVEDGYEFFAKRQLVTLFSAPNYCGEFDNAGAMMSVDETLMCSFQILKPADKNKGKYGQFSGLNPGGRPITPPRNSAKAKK
row,SMILES,inhibition
1,COc1ccccc1Sc1nc(-c2ccccn2)ncc1OC,65.9%
2,COc1ccc(Sc2nc(-c3ccccn3)ncc2OC)cc1,71.2%
3,COc1cnc(-c2ccccn2)nc1Sc1ccc(F)cc1,52.5%
4,O=C(NC1(O)C(=O)c2ccccc2C1=O)c1ccccc1,-2.88% (inactive)
5,CCOC(=O)c1cnc(-n2nc(C)cc2C)nc1NCCc1ccccc1,65.2%
6,CCn1c2ccccc2c2cc(NC(=O)COC(=O)c3ccc(NC(=O)CC#N)cc3)ccc21,47.2%
7,CCOc1ccc(NC(=S)Nc2ccc3nsnc3c2)cc1,4.8% (inactive)
8,Cc1cc(C)c(S(=O)(=O)/N=C2\C=C(Sc3ncn[nH]3)C(=O)c3ccccc32)cc1C,5.9% (inactive)
9,COc1ccc(NC(=S)Nc2ccc3nsnc3c2)cc1,2.7% (inactive)
10,COc1cnc(-c2ccccn2)nc1Sc1ccc(C)cc1,65.8%
11,COc1ccc(CN2C(=O)Cc3c2nc(N)c2c(N)nc(N4CCCCC4)c(C#N)c32)cc1,6.16% (inactive)
12,CC(=O)C(C(C)=O)C1(O)C(=O)c2ccccc2C1=O,0.756% (inactive)
13,Oc1ccccc1/C=N/Nc1cc(N2CCCC2)nc(N2CCCC2)n1,4.78% (inactive)
14,CCCN(CC1CC1)c1nc(N)c2c(N)nc(OC)cc2c1C#N,3.83% (inactive)
15,O=C1Nc2ccccc2N2CCCC12 (centres undefined),-0.206% (inactive)
16,CC(C)(CS(=O)(=O)[O-])NC(=O)CC[N+](C)(C)CCO,49.4%
17,COc1ccc(Cl)cc1C(=O)Nc1cccc(-c2ccc3nncn3n2)c1,60.4%
18,Cc1nnc(NC(=O)C2C3C=CC(O3)C2C(=O)O)s1 (centres undefined),8.42% (inactive)
19,CCCCN(CC)c1nc(N)c2c(N)nc(OCC)cc2c1C#N,3.48% (inactive)
20,Oc1ccc(/C=N/Nc2cc(N3CCOCC3)nc(N3CCOCC3)n2)c(O)c1,5.24% (inactive)
21,Cc1ccc(-n2nc(C(=O)O)cc2-c2ccc(Cl)cc2)cc1,56%
22,O=S(=O)(Cc1cc(NCc2ccccc2)nc(-c2ccccn2)n1)c1ccccc1,44.6%

row,SMILES,inhibition
1,CCOC(=O)c1cnc(-n2nc(C)cc2C)nc1NC(C)c1ccccc1 (centres undefined),68.8%
2,CN1CCN(C(c2ccccn2)c2cc(Cl)c3cccnc3c2O)CC1 (centres undefined),74%
3,COc1ccc(Cn2c(N)c(C(=O)NCc3ccco3)c3nc4ccccc4nc32)cc1OC,3.29% (inactive)
4,CCCCn1c(NC(=O)c2ccco2)c(C(=O)OCC)c2nc3ccccc3nc21,-4% (inactive)
5,c1ccc(-c2nccc(-c3ccc(-n4cnc5ccccc54)cc3)n2)nc1,62.4%
6,O=C(O)c1cc(-c2ccc(Cl)c(Cl)c2)n(-c2ccc(F)cc2)n1,57.1%
7,CCOC(=O)c1cnc(-n2cc(C)cn2)nc1NCc1ccc2c(c1)OCO2,12.9% (inactive)
8,O=c1[nH]c(Nc2ccccc2)cc2ccccc12,9.24% (inactive)
9,O=C(O)c1cc(-c2ccc(Cl)cc2)n(-c2cccc(Cl)c2)n1,57.5%
10,COc1cnc(-c2ccccn2)nc1Sc1cccc(Cl)c1,67.6%
11,CCOC(=O)c1cnc(-n2nc(C)cc2C)nc1NC1CCCCC1,57.6%
12,Cc1ccc(C(=O)NC2(O)C(=O)c3ccccc3C2=O)cc1C,-0.875% (inactive)
13,CCOC(=O)c1cnc(-n2nc(C)cc2C)nc1NCc1ccccc1,58.3%
14,COc1cnc(-c2ccccn2)nc1Oc1cccc(C(F)(F)F)c1,-4.5% (inactive)
15,COc1cc(Br)c(C(=O)c2nccc3cc(OC)c(OC)cc23)cc1OC,-4.95% (inactive)
16,O=C(O)c1cc(-c2ccc(Cl)c(Cl)c2)n(-c2ccccc2)n1,60.5%
17,Nc1cc2nsnc2cc1Br,-4.44% (inactive)
18,O=C(NC1(O)C(=O)c2ccccc2C1=O)c1c(Cl)cccc1Cl,0.361% (inactive)
19,COc1ccc(NC(=O)C2C3CCC(O3)C2C(=O)O)c(OC)c1 (centres undefined),34.9%
20,Clc1ccc(-n2nnnc2-c2cnc(-c3ccccn3)nc2-c2cccs2)cc1,67.4%
21,Cc1[nH]n(-c2ccccc2)c(=O)c1C(c1ccc([N+](=O)[O-])cc1)c1c(C)[nH]n(-c2ccccc2)c1=O,-0.696% (inactive)
22,COc1cnc(-c2ccccn2)nc1Oc1cccc(Cl)c1,49.5%

row,SMILES,inhibition
1,CCOC(=O)c1sc2nc3c(SCC(=O)O)cc(C(=O)c4cc(F)ccc4O)cn3c(=O)c2c1C,67.8%
2,N#Cc1c(-c2ccc(Cl)cc2)cc(-c2cccs2)nc1SCC(=O)O,46.6%
3,COc1ccc2c(Cl)c(C(=O)N/N=C/c3ccc4c(c3)OCO4)sc2c1,23% (inactive)
4,c1ccc(Nc2nc(-c3ccccn3)cs2)cc1,63.7%
5,CCOC(=O)c1sc(N2C(=O)C(O)=C(C(=O)c3ccco3)C2c2cccc([N+](=O)[O-])c2)nc1C (centres undefined),32.7%
6,Oc1cccc(/C=N/Nc2cc(N3CCCC3)nc(N3CCCC3)n2)c1,23.5% (inactive)
7,COc1cnc(-c2ccccn2)nc1Sc1ccc(Cl)cc1,53.2%
8,Nc1nc(-c2ccccn2)nc(N)c1Cc1ccc(Cl)cc1Cl,65.9%
9,COc1ccc(C(=O)c2nccc3cc(OC)c(OC)cc23)cc1OC,0.984% (inactive)
10,O=C(O)C1C2CCC(O2)C1C(=O)NC1CCCCC1 (centres undefined),25% (inactive)
11,N#Cc1c(N2CCCC(O)C2)nc(N)c2c(N)nc3c(c12)CC(=O)N3C12CC3CC(CC(C3)C1)C2 (centres undefined),8.91% (inactive)
12,CCOC(=O)C1=C(C)OC2(O)c3ccccc3C(=O)C12O (centres undefined),18.6% (inactive)
13,Cc1ccc(C(=O)NNc2cc(N3CCCC3)nc(N3CCCC3)n2)cc1,3.05% (inactive)
14,O=C(Nc1nc(-c2ccccn2)cs1)C1CC(=O)N(c2ccc3c(c2)OCCO3)C1 (centres undefined),49.4%
15,O=C1CCCC2=C1C1(O)C(=O)c3ccccc3C1(O)O2 (centres undefined),3.09% (inactive)
16,CCOC(=O)c1nn(-c2ccc(C)cc2)c(=O)c2c(N)scc12,6.08% (inactive)
17,COc1cnc(-c2ccccn2)nc1Sc1ccccc1Cl,68.5%
18,COc1ccc(OCCCC(=O)Nc2nc(-c3ccccn3)cs2)cc1,33.3%
19,O=C(NC1(O)C(=O)c2ccccc2C1=O)c1ccc(C(F)(F)F)cc1,6.8% (inactive)
20,COc1cnc(-c2ccccn2)nc1Sc1ccccc1,60.7%
